Measured values: patent US4207326A, “Antimicrobial quaternary pyrazole derivatives” (Cilag-Chemie A.G., priority 1979, dated 1980)
Converted amounts (≈) assume the structure as drawn. Read-outs that look alike come from different tables or passages of the source.

Assays:
[1] = system: S. schenkii; test: Antifungal activity: Minimum Inhibitory Concentration; assay type: cell-based, Sporotrichon schenkii NCPF 3182
Method: (§1) The antimicrobial activity was determined by inoculation of the test microorganism into suitable growth media containing solutions of the compounds at concentrations of 100, 50, 10, 5, 1.0, 0.5 and 0.1 μg/ml. The reference antibiotics used were Gentamicin for the antibacterial tests and Amphotericin B for the antimycotic and antifungal tests. After incubation the antimicrobial activity was recorded as the Minimal Inhibitory Concentration (M.I.C.), i.e., the lowest concentration preventing macroscopically visible growth, for each test compound against each organism.
(§2) An initial solution of each formula (I) compound to be tested in sterile distilled water was prepared at a concentration of 1000 μg/ml. With appropriate dilutions using sterile distilled water, additional solutions were prepared at concentrations of 500, 100, 50, 10, 5 and 1 μg/ml.
(§3) The A. corymbifera, A. fumigatus, S. schenkii, T. rubrum, T. mentagrophytes, M. canis and P. verrucosa strains were all maintained on Sabouraud-Dextrose Agar (Oxoid CM 41) by incubating for 14 days at 27° C. To prepare the inocula 30 ml volumes of Sabouraud-Liquid medium (Oxoid CM 147) were inoculated from the agar cultures and incubated at 27° C. until heavy uniform growth resulted. The mycelial growth was then broken up by shaking with glass beads.
(§4) 1 Ml aliquots were removed from each of the cultures for the purpose of making viable counts and the cultures were then held at 4° C. The viable counts were made by preparing serial ten-fold dilutions of the cultures in sterile physiological saline and spreading on plates of Sabouraud-Dextrose Agar (Oxoid CM 41) which were then incubated at 27° C. for 14 days. When the viable counts had confirmed that each of the inocula contained approximately 10^6 colony forming units (C.F.U.) per ml the cultures were withdrawn from the refrigerator and used as the inocula for the tests.
(§5) (c) For the tests on each of the remaining seven strains and each of the test and reference compounds, a series of 8 tubes containing 4.5 ml volumes of Sabouraud-Liquid Medium (Oxoid CM 147) were prepared. To 7 of these were added 0.5 ml volumes of the final solutions of the test compounds, giving final concentrations in the broths of 100, 50, 10, 5, 1.0, 0.5 and 0.1 μg/ml. To the eighth tube in each series was added 0.5 ml of the solvent used and diluted as for the preparation of the 500 μg/ml solution of the compound. This tube was used as a growth control. The tubes were then inoculated with 0.1 ml aliquots of the inocula prepared as in "(b) Fungi" above. The tubes were then incubated at 27° C. with continuous shaking for a period of one week. The tubes were then examined for evidence of growth as shown by the presence of mycelial growth in the medium and the lowest concentration of the test compound which prevented fungal growth was recorded as the Minimal Inhibitory Concentration. This test procedure was carried out on two separate days.

[2] = system: C. tropicalis; test: Antimycotic activity: Minimum Inhibitory Concentration; assay type: cell-based, Candida tropicalis NCPF 3111; conditions: Candida tropicalis, pH 5.5, 37° C., 72 hours
Method: as §1, §2
(§6) The two species, C. albicans and C. tropicalis, were maintained on Sabouraud-Dextrose Agar (Oxoid CM41) and cultures for the preparation of the inoculum were incubated on this agar at 37° C. for 48 hours. 4.5 Ml volumes of citric acid-phosphate buffer pH 5.5 plus Yeast-Nitrogen Base (Difco 0392-15) were then inoculated from the agar cultures and incubated at 37° C. for 48 hours. 0.1 Ml aliquots of these cultures were then added to 100 ml volumes of sterile physiological saline to give the final inocula.
(§7) (b) For the tests on each of the C. albicans, C. tropicalis and C. neoformans strains and each of the test and reference compounds, a series of 8 tubes containing 4.5 ml volumes of citric acid-phosphate buffer pH 5.5 plus Yeast-Nitrogen Base (Difco 0392-15) were prepared. To 7 of these were added 0.5 ml volumes of the final solutions of the test compounds, giving final concentrations in the broths of 100, 50, 10, 5, 1.0, 0.5 and 0.1 μg/ml. To the eighth tube in each series was added 0.5 ml of the solvent used and diluted as for the preparation of the 1000 μg/ml solution of the compound. This tube was used as the growth control. The tubes were then inoculated with 0.1 ml aliquots of the inocula prepared as in "(b) Fungi" above. The tubes inoculated with the C. albicans and C. tropicalis were inoculated at 37° C. for 72 hours and the tubes inoculated with the C. neoformans straim were incubated at 30° C. for 72 hours. […] The tubes were then examined for evidence of growth as shown by turbidity of the medium and the lowest concentration of the test compound which prevented fungal growth was recorded as the Minimal Inhibitory Concentration. This test procedure was carried out on two separate days.

[3] = system: M. canis; test: Antifungal activity: Minimum Inhibitory Concentration; assay type: cell-based, Microsporum canis NCPF 351
Method: as §1, §2, §3, §4, §5

[4] = system: A. fumigatus; test: as above; assay type: cell-based, Aspergillus fimigatus (A. fumigatus) NCPF 2140
Method: as §1, §2, §3, §4, §5

[5] = system: T. rubrum; test: as above; assay type: cell-based, Trichophyton rubrum NCPF 197
Method: as §1, §2, §3, §4, §5

[6] = system: P. verrucosa; test: as above; assay type: cell-based, Phialophore verrucosa NCPF 1119
Method: as §1, §2, §3, §4, §5

[7] = system: A. corymbifera; test: as above; assay type: cell-based, Absidia corymbifera NCPF 2001
Method: as §1, §2
A. corymbifera NCPF 2001
as §3, §4, §5

[8] = system: T. mentagrophytes; test: as above; assay type: cell-based, Trichophyton mentagrophytes NCPF 410
Method: as §1, §2
T. mentagrophytes NCPF 410
as §3, §4, §5

[9] = system: C. neoformans; test: Antimycotic activity: Minimum Inhibitory Concentration; assay type: cell-based, Cryptococcus neoformans NCPF 3184; conditions: Cryptococcus neoformans, pH 5.5, 30° C., 72 hours
Method: as §1, §2
The C. neoformans was also maintained on Sabouraud-Dextrose Agar (Oxoid CM 41), but in this case cultures for the preparation of the inoculum were incubated on this agar at 30° C. for 48 hours. A 4.5 ml volume of citric acid-phosphate buffer pH 5.5 plus Yeast-Nitrogen Base (Difco-0392-15) was then inoculated from the agar culture and incubated at 30° C. for 48 hours. A 0.1 ml aliquot of this culture was then added to 100 ml sterile physiological saline to give the final inoculum.
as §7

[10] = system: C. albicans; test: as above; assay type: cell-based, Candida albicans ATCC 10231
Method: as §1, §2, §6, §7

[11] = system: S. aureus; test: Antibacterial activity: Minimum Inhibitory Concentration; assay type: cell-based, Staphylococcus aureus ATCC 6538; conditions: 24 hours
Method: as §1, §2
(§8) They were cultured and maintained on Tryptone Soy Agar (Oxoid CM 131), with the addition of 10% horse blood for the S. pyogenes.
(§9) To prepare the organisms as inocula for the test, slopes of this medium were streaked with the organisms and incubated at 37° C. for 24 hours. 4.5 Ml volumes of Brian-Heart Infusion Broth (Oxoid CM 225) were then inoculated with a platinum loop from the agar slope cultures and incubated for 24 hours at 37° C. The final inocula were then prepared by adding 0.1 ml aliquots of the Brain-Heart Infusion Broth cultures to 100 ml volumes of sterile physiological saline.
(§10) (a) For the test on each of the bacterial strains and each of the test and reference compounds, a series of 8 tubes containing 4.5 ml volumes of Brain-Heart Infusion Broth (Oxoid CM 225) were prepared. To 7 of these were added 0.5 ml volumes of the final solutions of the test compouns, giving final concentrations in the broths of 100, 50, 10, 5, 1.0, 0.5 and 0.1 μg/ml. To the eighth tube in each series was added 0.5 ml of the solvent used and diluted as for the preparation of the 1000 μg/ml solution of the compound. This tube was used as the growth control. The tubes were inoculated with 0.02 ml aliquots of the inocula prepared in accordance with "(a) Bacteria" above, and incubated at 37° C. for 24 hours. The tubes were then examined for evidence of bacterial growth as shown by turbidity of the medium and the lowest concentration of the test compound which prevented bacterial growth was recorded as the Minimal Inhibitory Concentration. This test procedure was carried out on two separate days.

[12] = system: P. mirabilis; test: as above; assay type: cell-based, Proteus mirabilis NCTC 8559; conditions: P. mirabilis, 37° C., 24 hours
Method: as §1, §2, §8, §9, §10

[13] = system: S. pyogenes; test: as above; assay type: cell-based, Streptococcus pyogenes NCTC 8198; conditions: 24 hours
Method: as §1, §2, §8, §9, §10

[14] = system: E. coli; test: as above; assay type: cell-based, Escherichia coli ATCC 8739; conditions: 24 hours
Method: as §1, §2, §8, §9, §10

[15] = system: P. aeruginosa; test: as above; assay type: cell-based, Pseudomonas aeruginosa ATCC 9027; conditions: P. aeruginosa, 37° C., 24 hours
Method: as §1, §2, §8, §9, §10

## C[C@@H]1[C@H](O)[C@@H](C)/C=C/C=C/C=C/C=C/C=C/C=C/C=C/[C@H](O[C@@H]2O[C@H](C)[C@@H](O)[C@H](N)[C@@H]2O)C[C@@H]2O[C@](O)(C[C@@H](O)C[C@@H](O)[C@H](O)CC[C@@H](O)C[C@@H](O)CC(=O)O[C@H]1C)C[C@H](O)[C@H]2C(=O)O [Amphotericin B, reference compound]
[1]; S. schenkii, Day 2, 27° C., one week
  Minimum Inhibitory Concentration: 50 µg/mL
[1]; read-out: Minimum Inhibitory Concentration
  MIC: 50 µg/mL (≈ 54.1 µM)
[2]; pH 5.5, read-out: Minimum Inhibitory Concentrations, C. tropicalis, Day 1
  MIC: 1 µg/mL (≈ 1.08 µM)
[2]; pH 5.5, read-out: Minimum Inhibitory Concentrations, C. tropicalis, Day 2
  MIC: 1 µg/mL (≈ 1.08 µM)
[3]; M. canis, Day 2, 27° C., one week
  Minimum Inhibitory Concentration: 1 µg/mL
[3]; Microsporum canis, read-out: Minimum Inhibitory Concentration
  MIC: 1 µg/mL (≈ 1.08 µM)
[4]; A. fumigatus, Day 2, 27° C., one week
  Minimum Inhibitory Concentration: 5 µg/mL
[4]; Aspergillus fumigatus, read-out: Minimum Inhibitory Concentration
  MIC: 5 µg/mL (≈ 5.41 µM)
[5]; T. rubrum, Day 2, 27° C., one week
  Minimum Inhibitory Concentration: 50 µg/mL
[5]; Trichophyton rubrum, read-out: Minimum Inhibitory Concentration
  MIC: 50 µg/mL (≈ 54.1 µM)
[6]; P. verrucosa, Day 2, 27° C., one week
  Minimum Inhibitory Concentration: 10 µg/mL
[6]; Phialophora verrucosa, read-out: Minimum Inhibitory Concentration
  MIC: 10 µg/mL (≈ 10.8 µM)
[7]; A. corymbifera, Day 2, 27° C., one week
  Minimum Inhibitory Concentration: 5 µg/mL
[7]; Lichtheimia corymbifera, read-out: Minimum Inhibitory Concentration
  MIC: 5 µg/mL (≈ 5.41 µM)
[8]; T. mentagrophytes, Day 1, 27° C., one week
  Minimum Inhibitory Concentration: 50 µg/mL
[8]; Trichophyton mentagrophytes, read-out: Minimum Inhibitory Concentration
  MIC: 50 µg/mL (≈ 54.1 µM)
[9]; pH 5.5, read-out: Minimum Inhibitory Concentrations, C. neoformans, Day 1
  MIC: 1 µg/mL (≈ 1.08 µM)
[9]; pH 5.5, read-out: Minimum Inhibitory Concentrations, C. neoformans, Day 2
  MIC: 0.5 µg/mL (≈ 0.541 µM)
[10]; C. albicans, Day 2, pH 5.5, 37° C., 72 hours
  Minimum Inhibitory Concentrations: 1 µg/mL
[10]; Candida albicans, pH 5.5, read-out: Minimum Inhibitory Concentrations
  MIC: 1 µg/mL (≈ 1.08 µM)

## Gentamicin [reference compound]
[11]; Day 1, 37° C.
  Minimum Inhibitory Concentration: 0.5 µg/mL
[11]; Day 2, 37° C.
  Minimum Inhibitory Concentration: 0.5 µg/mL
[12]; Day 1
  Minimum Inhibitory Concentration: 5 µg/mL
[12]; Day 2
  Minimum Inhibitory Concentration: 5 µg/mL
[13]; Day 1, 37° C.
  Minimum Inhibitory Concentration: 0.5 µg/mL
[13]; Day 2, 37° C.
  Minimum Inhibitory Concentration: 0.5 µg/mL
[14]; Day 1, 37° C.
  Minimum Inhibitory Concentration: 10 µg/mL
[14]; Day 2, 37° C.
  Minimum Inhibitory Concentration: 10 µg/mL
[15]; Day 1
  Minimum Inhibitory Concentration: 1 µg/mL
[15]; Day 2
  Minimum Inhibitory Concentration: 1 µg/mL
